Experiment [1] addresses human P2X2/3 receptor (Homo sapiens (Human), UniProt P56373+Q9UBL9). In words: Intracellular calcium measurement (FLIPR, Fluo-4) of antagonist activity at human P2X2/3 receptors. The format is cell-based. Conditions: human P2X2/3, FLIPR calcium assay, agonist α,β-Me-ATP; read-out: hP2X2/3 IC50. An outline of the steps: (§1)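 Cells expressing human P2X3 or P2X2/3, loaded with Fluo-4, preincubated 30 min at 37° C. with compound (1% DMSO final), then challenged with α,β-Me-ATP at its EC80. Peak FLIPR fluorescence over 90 sec gave % response; IC50, maximal inhibition and Hill slope from triplicates.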
(A change in cytosolic calcium serves as a functional read-out for many receptors and channels.)

The target of experiment [2] is human P2X3 receptor (Homo sapiens (Human), UniProt P56373). In words: Intracellular calcium measurement (FLIPR, Fluo-4) of antagonist activity at human P2X3 receptors. In kind it is cell-based. Conditions: read-out: hP2X3 IC50. An outline of the steps:
as §1

[3] abbreviates: human P2X3, FLIPR calcium assay, agonist α,β-Me-ATP.

Structures are written as SMILES. Read-outs that look alike come from different tables or passages of the source.

Sequence of human P2X2/3 receptor (P56373 whole entry): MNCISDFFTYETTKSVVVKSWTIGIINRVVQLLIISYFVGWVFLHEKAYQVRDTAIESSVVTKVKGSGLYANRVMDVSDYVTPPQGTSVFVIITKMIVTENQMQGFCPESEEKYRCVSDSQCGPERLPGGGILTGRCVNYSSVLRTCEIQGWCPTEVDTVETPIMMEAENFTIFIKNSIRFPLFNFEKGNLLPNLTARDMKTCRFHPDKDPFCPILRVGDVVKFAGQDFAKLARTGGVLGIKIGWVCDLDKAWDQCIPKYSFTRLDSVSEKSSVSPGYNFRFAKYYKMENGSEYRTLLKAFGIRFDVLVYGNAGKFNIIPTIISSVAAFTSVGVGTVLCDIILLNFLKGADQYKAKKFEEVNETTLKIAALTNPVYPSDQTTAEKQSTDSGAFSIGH
Sequence of human P2X2/3 receptor (Q9UBL9 whole entry): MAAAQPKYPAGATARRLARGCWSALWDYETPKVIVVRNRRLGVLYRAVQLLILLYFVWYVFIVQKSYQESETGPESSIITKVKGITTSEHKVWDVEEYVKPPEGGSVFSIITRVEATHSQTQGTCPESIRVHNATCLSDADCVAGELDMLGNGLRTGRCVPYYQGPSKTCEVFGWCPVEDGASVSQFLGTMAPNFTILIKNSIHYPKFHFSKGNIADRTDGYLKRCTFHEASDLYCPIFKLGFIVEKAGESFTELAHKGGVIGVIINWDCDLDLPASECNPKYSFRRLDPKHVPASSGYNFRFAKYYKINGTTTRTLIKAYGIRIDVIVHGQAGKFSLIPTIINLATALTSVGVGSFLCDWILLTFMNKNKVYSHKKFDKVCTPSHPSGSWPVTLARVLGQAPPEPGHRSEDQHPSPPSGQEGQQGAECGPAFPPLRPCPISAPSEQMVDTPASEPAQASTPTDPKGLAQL
Sequence of human P2X3 receptor (P56373 whole entry): as the sequence (P56373 whole entry) above

For the molecule `Cc1ncc([C@@H](C)NC(=O)c2cc(OC3COC3)cc(-c3ncc(C)s3)c2)cn1` [Example 43, N-[(1R)-1-(2-Methylpyrimidin-5-yl)ethyl]-3-(5-methyl-1,3-thiazol-2-yl)-5-(oxetan-3-yloxy)benzamide], the IC50 amounted to 2690 nM in experiment [1] and 50 nM in experiment [2] (setting [3]).
For `Cc1cnc(-c2cc(OC3CCN(CC(F)F)CC3)cc(C(=O)N[C@@H](C)c3cnc(C(F)(F)F)nc3)c2)s1` [Example 308, 3-{[1-(2,2-difluoroethyl)piperidin-4-yl]oxy}-5-(5-methyl-1,3-thiazol-2-yl)-N-{(1S)-1-[2-(trifluoromethyl)pyrimidin-5-yl]ethyl}benzamide] the same measures were 2590 nM and 153 nM.
For the molecule `Cc1cnc(-c2cc(OC3CCNC(C(F)(F)F)C3)cc(C(=O)N[C@H](C)c3cnc(C(F)(F)F)nc3)c2)s1` (single isomer, unassigned) [Example 207], the IC50 in experiment [1] amounted to 87 nM; in experiment [2] (setting [3]) it was 5 nM.
For `Cc1cnc(-c2cc(OC3COC3)cc(C(=O)NCc3cnc(C(F)(F)F)nc3)c2)s1` [Example 167, 3-(5-methyl-1,3-thiazol-2-yl)-5-(oxetan-3-yloxy)-N-{[2-(trifluoromethyl)pyrimidin-5-yl]methyl}benzamide] the same measures were 893 nM and 72 nM.
Regarding `Cc1cnc(-c2cc(OCC(C)(C)O)cc(C(=O)N[C@H](C)c3cnc(C(F)(F)F)nc3)c2)s1` [Example 328, 3-(2-hydroxy-2-methylpropoxy)-5-(5-methyl-1,3-thiazol-2-yl)-N-{(1R)-1-[2-(trifluoromethyl)pyrimidin-5-yl]ethyl}benzamide], the results for the IC50 in experiment [1] and in experiment [2] were 274 nM and 12 nM, respectively.
For `CCc1cnc(-c2cc(OC[C@@H]3CCCO3)cc(C(=O)N[C@H](C)c3cnc(C)cn3)c2)s1` [Example 283, 3-(5-ethyl-1,3-thiazol-2-yl)-N-[(1R)-1-(5-methylpyrazin-2-yl)ethyl]-5-[(2S)-tetrahydrofuran-2-ylmethoxy]benzamide] the same measures were 379 nM and 10 nM.
As for `Cc1cnc([C@@H](C)NC(=O)c2cc(OC3CCN(CC(F)F)CC3)cc(-c3ncc(C)s3)c2)cn1` [Example 306, 3-{[1-(2,2-difluoroethyl)piperidin-4-yl]oxy}-N-[(1R)-1-(5-methylpyrazin-2-yl)ethyl]-5-(5-methyl-1,3-thiazol-2-yl)benzamide], the IC50 in experiment [1] worked out at 464 nM; in experiment [2] (setting [3]) it was 42 nM.
For `Cc1cc(Oc2cc(C(=O)NCc3ccc(C)nn3)cc(-c3ncc(C)s3)c2)ccn1` [Example 101, N-[(6-Methylpyridazin-3-yl)methyl]-3-[(2-methylpyridin-4-yl)oxy]-5-(5-methyl-1,3-thiazol-2-yl)benzamide] the same measures were 60 nM and 15 nM.
The like results for `CCc1cnc(-c2cc(O[C@H]3CCOC3)cc(C(=O)N[C@H](C)c3ccc(C)nn3)c2)s1` [Example 249, 3-(5-ethyl-1,3-thiazol-2-yl)-N-[(1R)-1-(6-methylpyridazin-3-yl)ethyl]-5-[(3S)-tetrahydrofuran-3-yloxy]benzamide] were, in that order, 57 nM and 11 nM.
The like results for `Cc1cnc(-c2cc(OCC3(C)COC3)cc(C(=O)N[C@H](C)c3cnc(C(F)(F)F)nc3)c2)s1` [Example 327, 3-[(3-methyloxetan-3-yl)methoxy]-5-(5-methyl-1,3-thiazol-2-yl)-N-{(1R)-1-[2-(trifluoromethyl)pyrimidin-5-yl]ethyl}benzamide] were, in that order, 239 nM and 10 nM.
In the case of `Cc1cnc(-c2cc(OC[C@@H]3COCCN3C)cc(C(=O)N[C@H](C)c3cnc(C(F)(F)F)nc3)c2)s1` [Example 362], the IC50 in experiment [1] came out at 1010 nM; in experiment [2] (setting [3]), 8 nM.
Turning to `CCc1cnc(-c2cc(O[C@@H]3CCOC3)cc(C(=O)N[C@H](C)c3ccc(C)nn3)c2)s1` [Example 240, 3-(5-ethyl-1,3-thiazol-2-yl)-N-[(1R)-1-(6-methylpyridazin-3-yl)ethyl]-5-[(3R)-tetrahydrofuran-3-yloxy]benzamide], the figures for the IC50 in experiment [1] and in experiment [2] (setting [3]) were 35 nM and 12 nM, respectively.
For `COC(=O)N1CCO[C@@H](COc2cc(C(=O)N[C@H](C)c3cnc(C(F)(F)F)nc3)cc(-c3ncc(C)s3)c2)C1` [Example 392, Methyl (2R)-2-{[3-(5-methyl-1,3-thiazol-2-yl)-5-({(1R)-1-[2-(trifluoromethyl)pyrimidin-5-yl]ethyl}carbamoyl)phenoxy]methyl}morpholine-4-carboxylate] the same measures were 411 nM and 11 nM.
With `Cc1cnc(-c2cc(OC[C@@H]3COCC(=O)N3)cc(C(=O)N[C@H](C)c3cnc(C(F)(F)F)nc3)c2)s1` [Example 403, 3-(5-methyl-1,3-thiazol-2-yl)-5-{[(3S)-5-oxomorpholin-3-yl]methoxy}-N-{(1R)-1-[2-(trifluoromethyl)pyrimidin-5-yl]ethyl}benzamide], the IC50 in experiment [1] was determined as 2110 nM; in experiment [2] it was 56 nM.
On to `Cc1ccc([C@@H](C)NC(=O)c2cc(OC3COC3)cc(-c3ncc(C)s3)c2)nn1` [Example 47, N-[(1R)-1-(6-Methylpyridazin-3-yl)ethyl]-3-(5-methyl-1,3-thiazol-2-yl)-5-(oxetan-3-yloxy)benzamide], for which the results for the IC50 in experiment [1] and in experiment [2] (setting [3]) were 621 nM and 82 nM, respectively.
The like results for `Cc1ccc(CNC(=O)c2cc(OCC3CCOCC3)cc(-c3ncc(C)s3)c2)nn1` [Example 93, N-[(6-Methylpyridazin-3-yl)methyl]-3-(5-methyl-1,3-thiazol-2-yl)-5-(tetrahydro-2H-pyran-4-ylmethoxy)benzamide] were, in that order, 385 nM and 8 nM.
For `Cc1cnc(-c2cc(OCC3CC3)cc(C(=O)N[C@H](C)c3ccc(C(F)(F)F)nn3)c2)s1` [Example 9, 3-(Cyclopropylmethoxy)-5-(5-methyl-1,3-thiazol-2-yl)-N-{(1R)-1-[6-(trifluoromethyl)pyridazin-3-yl]ethyl}benzamide] the same measures were 145 nM and 7 nM.
For `Cc1cnc(-c2cc(OC3COC3)cc(C(=O)N[C@H](C)c3cnc(C(F)F)nc3)c2)s1` [Example 152, N-{(1R)-1-[2-(difluoromethyl)pyrimidin-5-yl]ethyl}-3-(5-methyl-1,3-thiazol-2-yl)-5-(oxetan-3-yloxy)benzamide], the figures for the IC50 in experiment [1] and in experiment [2] (setting [3]) were 523 nM and 45 nM, respectively.
For `C[C@@H](NC(=O)c1cc(OC[C@@H]2CN(C)CCO2)cc(-c2ncc(Cl)s2)c1)c1cnc(C(F)(F)F)nc1` [Example 376, 3-(5-chloro-1,3-thiazol-2-yl)-5-{[(2S)-4-methylmorpholin-2-yl]methoxy}-N-{(1R)-1-[2-(trifluoromethyl)pyrimidin-5-yl]ethyl}benzamide] the same measures were 898 nM and 32 nM.
For `Cc1cnc(-c2cc(Oc3nnc(C)s3)cc(C(=O)N[C@H](C)c3cnc(C(F)(F)F)nc3)c2)s1` [Example 111, 3-[(5-Methyl-1,3,4-thiadiazol-2-yl)oxy]-5-(5-methyl-1,3-thiazol-2-yl)-N-[(1R)-1-[2-(trifluoromethyl)pyrimidin-5-yl]ethyl]benzamide] the same measures were 380 nM and 16 nM.
For the molecule `Cc1cnc(-c2cc(OC3CCN(C(=O)OC(C)(C)C)CC3)cc(C(=O)N[C@H](C)c3cnc(C(F)(F)F)nc3)c2)s1` [Example 137, tert-Butyl 4-[3-(5-methyl-1,3-thiazol-2-yl)-5-({(1R)-1-[2-(trifluoromethyl)pyrimidin-5-yl]ethyl}carbamoyl)phenoxy]piperidine-1-carboxylate], the IC50 in experiment [1] worked out at 328 nM; in experiment [2], 26 nM.
For the molecule `CCc1cnc(-c2cc(OC[C@@H]3CCCO3)cc(C(=O)N[C@H](C)c3ccc(C(F)(F)F)nn3)c2)s1` [Example 302, 3-(5-ethyl-1,3-thiazol-2-yl)-5-[(2S)-tetrahydrofuran-2-ylmethoxy]-N-{(1R)-1-[6-(trifluoromethyl)pyridazin-3-yl]ethyl}benzamide], the IC50 was 145 nM in experiment [1] and 6 nM in experiment [2] (setting [3]).
As to `Cc1cnc(-c2cc(OC3COC3)cc(C(=O)N[C@H](C)c3ccc(C(F)F)nc3)c2)s1` [Example 164], the results for the IC50 in experiment [1] and in experiment [2] (setting [3]) were 1110 nM and 60 nM, respectively.
Turning to `Cc1cnc(-c2cc(OC[C@@H]3COCC(=O)N3C)cc(C(=O)N[C@H](C)c3cnc(C(F)(F)F)nc3)c2)s1` [Example 402, 3-{[(3S)-4-methyl-5-oxomorpholin-3-yl]methoxy}-5-(5-methyl-1,3-thiazol-2-yl)-N-{(1R)-1-[2-(trifluoromethyl)pyrimidin-5-yl]ethyl}benzamide], the IC50 in experiment [1] turned out to be 1250 nM; in experiment [2] (setting [3]), 21 nM.
For `Cc1cnc(-c2cc(OC3COC3)cc(C(=O)NCc3ccc(C(F)(F)F)nn3)c2)s1` [Example 52, 3-(5-methyl-1,3-thiazol-2-yl)-5-(oxetan-3-yloxy)-N-{[6-(trifluoromethyl)pyridazin-3-yl]methyl}benzamide] the same measures were 564 nM and 194 nM.
For `C[C@H](NC(=O)c1cc(OC[C@H]2CCOC2)cc(-c2ncc(C3CCC3)s2)c1)c1cnc(C(F)(F)F)nc1` [Example 239, 3-(5-cyclobutyl-1,3-thiazol-2-yl)-5-[(3S)-tetrahydrofuran-3-ylmethoxy]-N-{(1S)-1-[2-(trifluoromethyl)pyrimidin-5-yl]ethyl}benzamide] the same measures were 2170 nM and 1420 nM.
The like results for `Cc1cnc(-c2cc(OCC3CCOCC3)cc(C(=O)NC(C)c3ncc(Cl)cc3F)c2)s1` (stereo not drawn) [Example 95, N-[1-(5-Chloro-3-fluoropyridin-2-yl)ethyl]-3-(5-methyl-1,3-thiazol-2-yl)-5-(tetrahydro-2H-pyran--4-ylmethoxy)benzamide] were, in that order, 129 nM and 2 nM.

The record behind these values is US10174016B2 (BAYER AKTIENGESELLSCHAFT, priority 2014, dated 2019).
